Values of other authors in patent US11246476B2, “Method for visualizing tissue with an ICG dye composition during ablation procedures” (CardioFocus, Inc., priority 2014, dated 2022).

Columns and labels:
[1] = after injection into the patient's arm (e.g., through an IV)
[2] = in vivo
[3] = tested on: plasma proteins

CC1(C)C(/C=C/C=C/C=C/C=C2\N(CCCCS(=O)(=O)[O-])c3ccc4ccccc4c3C2(C)C)=[N+](CCCCS(=O)(=O)[O-])c2ccc3ccccc3c21.[Na+] [ICG, Indocyanine green]
time to travel through the bloodstream to the target tissue [1]: less than 1 minute
route of removal from circulation [2]: removed from circulation exclusively by the liver to bile juice
binding to plasma proteins [3]: binds tightly to plasma proteins
